Like-named read-outs stand apart in the source and are kept apart here.
Tests used:
Format in all cases: cell-based
[1] = test system: Aβ-42; experiment: MSD Human (6E10) Ab 3-PLEX elisa, conditioned media of 2B7 cells: Aβ-42; details: for IC50: Aβ-42 (superscript c)
Procedure: (§1) Assays were conducted to determine the ability of a Compound of Formula I to modulate […], and Aβ-38.
(§2) Plates with capture antibodies were blocked for 1-2 hours at room temperature with 150 μL of the manufactures blocking reagent.
(§3) Conditioned Media: • Cultured 2B7 cells in 96 well plate with 250 uL of media per well until confluent; • Prepared serial dilutions of compounds in DMSO at 100× the final desired concentration; • Washed wells with 2B7 cells 1× with 250 uL of media; • Diluted DMSO stocks 1:100 into media: • Added 250 μL of media containing compounds (1% DMSO) to wells with 2B7 cells for 5 hours at 37° C.
(§4) Elisa Sample Prep: • Diluted conditioned media: 1 part media with 1% DMSO and 1 part blocking buffer; • 150 μL of the 250 μL of conditioned media were used.
(§5) […] CURVE SAMPLE PREP: Prepared per manufacturer's protocol (see above) • Seven point standard curve samples were prepared that contained Aβ-42, Aβ-40, and Aβ-38. The highest concentration of Aβ-42 and Aβ-3-38 was 3,000 pg/mL and the highest concentration of Aβ-40 was 10,000 pg/mL. Subsequent serial dilutions were 1:3 and the final composition of each sample was 1 part blocking buffer and 1 part cell medium containing 1% DMSO.
(§6) Overnight Sample Incubation: • Blocked plates are washed 5× with MSD wash buffer with a plate washer • 25 uL of detection antibody and blocker G reagent in MSD blocking solution is added • 25 uL of samples (1 part conditioned media containing 1% DMSO and 1 part MSD blocking buffer) are then added. • plates are incubated overnight at 4 degrees C. or 2 hours at room temp
(§7) Final Wash and Readout: • Wash wells 5× with MSD wash buffer • Added 150 μL 2×MSD read buffer • Read with MSD imager.
(§8) A-Beta peptide levels for each peptide are calculated from the standard curve using the MSD software provided with the MSD 2400 Imager. Percent vehicle values for each compound dosage were then calculated and fit to a 4 parameter curve generating IC50 values.

[2] = test system: Aβ-40; experiment: MSD Human (6E10) Ab 3-PLEX elisa, conditioned media of 2B7 cells: Aβ-40; details: for IC50: Aβ-40 (superscript b)
Procedure: as §1, §2, §3, §4, §5, §6, §7, §8

[3] = test system: Aβ-38; experiment: MSD Human (6E10) Ab 3-PLEX elisa, conditioned media of 2B7 cells: Aβ-38
Procedure: as §1, §2, §3, §4, §5, §6, §7, §8

[4] = test system: amyloid-beta (1-42) peptide; experiment: ELISA assay of amyloid-beta (1-42) in conditioned media of 2B7 cells; details: for inhibition at 100 µM: Aβ-42, 100 umol/L; for IC50: Aβ-42, 2B7 cells, 5 hours, read-out: IC50 range
Procedure, shortened: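 2B7 cells were treated with compounds for 5 hours at 37° C in media with 1% DMSO. Conditioned media, diluted 1:2 in blocking buffer, went into a sandwich ELISA with 6E10 capture and an HRP-labelled detection antibody, read by TMB at 450 nm. Values came from an Aβ peptide standard curve.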

[5] = Homo sapiens, read-out: IC50 range
[6] = Homo sapiens, Aβ-38 (superscript a), read-out: 50% reduction value
[7] = Homo sapiens, read-out: 50% reduction value
[8] = Aβ-38 (superscript a), read-out: 50% reduction value
[9] = Aβ-38 (superscript a), read-out: IC50 range

C[C@@H]1CC(CNC(C(=O)O)C(F)(F)F)OC2[C@H]1[C@@]1(C)CC[C@@]34C[C@@]35CC[C@H](O[C@H]3CN(C(=O)CC6CC6)CCO3)C(C)(C)[C@@H]5CCC4[C@]1(C)[C@H]2O (stereo partly drawn)
IC50 [1, 5]: 1000 to 10000 nM
IC50 [2, 5]: 1000 to 10000 nM

CC(=O)O[C@H](C(C)C)C1C[C@@H](C)[C@H]2C(O1)[C@H](O)[C@@]1(C)C3CC[C@H]4C(C)(C)[C@@H](O[C@H]5CN(C(=O)C(C)C)CCO5)CC[C@@]45C[C@@]35CC[C@]21C (stereo partly drawn)
IC50 [3, 6]: < 1000 nM
IC50 ([3]; Homo sapiens, Aβ-38 (superscript a), read-out: IC50 range): < 1000 nM
IC50 [1, 7]: < 1000 nM
IC50 [1, 5]: < 1000 nM
IC50 [2, 7]: < 1000 nM

COC(=O)NCC1C[C@@H](C)[C@H]2C(O1)[C@H](O)[C@@]1(C)C3CC[C@H]4C(C)(C)[C@@H](O)CC[C@@]45C[C@@]35CC[C@]21C (stereo partly drawn)
IC50 [3, 6]: > 10000 nM
inhibition at 20 µM ([1]; Homo sapiens, Aβ-42, 20 μM): 25 to 75%
inhibition at 20 µM ([2]; Homo sapiens, Aβ-40, 20 μM): 25 to 75%

CC1CC(C(OC(=O)C2CC2)C(C)(C)O)OC2C1C1(C)CCC34CC35CCC(OC3CN(C6COC6)CCO3)C(C)(C)C5CCC4C1(C)C2O (stereo not drawn)
IC50 [3, 8]: 1000 to 10000 nM
IC50 [3, 9]: < 1000 nM
IC50 ([1]; read-out: 50% reduction value): 1000 to 10000 nM
IC50 ([2]; read-out: 50% reduction value): 1000 to 10000 nM

CC1CC(C(OC(=O)C2CCOC2)C(C)(C)O)OC2C1C1(C)CCC34CC35CCC(OC3CN(C6COC6)CCO3)C(C)(C)C5CCC4C1(C)C2O (stereo not drawn)
IC50 [3, 8]: 1000 to 10000 nM
IC50 [3, 9]: < 1000 nM
IC50 ([1]; read-out: 50% reduction value): 1000 to 10000 nM
IC50 ([2]; read-out: 50% reduction value): 1000 to 10000 nM

CC(C)CC(=O)OC(C1CC(C)C2C(O1)C(O)C1(C)C3CCC4C(C)(C)C(OC5CN(C6COC6)CCO5)CCC45CC35CCC21C)C(C)(C)O (stereo not drawn)
IC50 range (nM) ([3]; Aβ-38 (superscript a)): A- B
IC50 [3, 8]: 1000 to 10000 nM
IC50 ([1]; read-out: 50% reduction value): 1000 to 10000 nM
IC50 ([1]; read-out: IC50 range): 1000 to 10000 nM
IC50 ([2]; read-out: 50% reduction value): 1000 to 10000 nM
IC50 ([2]; read-out: IC50 range): 1000 to 10000 nM

CC1CC(C(OC(=O)CC2CC2)C(C)(C)O)OC2C1C1(C)CCC34CC35CCC(OC3CN(C6COC6)CCO3)C(C)(C)C5CCC4C1(C)C2O (stereo not drawn)
IC50 [3, 8]: < 1000 nM
IC50 [3, 9]: < 1000 nM
IC50 ([1]; read-out: 50% reduction value): < 1000 nM
IC50 ([1]; read-out: IC50 range): < 1000 nM
IC50 ([2]; read-out: 50% reduction value): 1000 to 10000 nM
IC50 ([2]; read-out: IC50 range): 1000 to 10000 nM

CCC1CC(C)C2C(O1)C(O)C1(C)C3CCC4C(C)(C)C(O)CCC45CC35CCC21C (stereo not drawn)
% Inh. (range) ([3]; Aβ-38, 20 μM): E (% inhibition of 25-75%)
% Inh. (range) ([1]; Aβ-42, 20 μM): F (% inhibition of <25%)
% Inh. (range) ([2]; Aβ-40, 20 μM): E (% inhibition of 25-75%)

CC1CC(C2OCC(=O)OC2(C)C)OC2C1C1(C)CCC34CC35CCC(OC3CN(C6COC6)CCO3)C(C)(C)C5CCC4C1(C)C2O (stereo not drawn)
IC50 [3, 8]: 1000 to 10000 nM
IC50 ([1]; read-out: 50% reduction value): 1000 to 10000 nM
IC50 ([2]; read-out: 50% reduction value): 1000 to 10000 nM

CC1CC(C(OC(=O)C2CCOCC2)C(C)(C)O)OC2C1C1(C)CCC34CC35CCC(OC3CN(C6COC6)CCO3)C(C)(C)C5CCC4C1(C)C2O (stereo not drawn)
IC50 [3, 8]: < 1000 nM
IC50 [3, 9]: < 1000 nM
IC50 ([1]; read-out: 50% reduction value): < 1000 nM
IC50 ([2]; read-out: 50% reduction value): 1000 to 10000 nM
IC50 ([2]; read-out: IC50 range): 1000 to 10000 nM

COC1C2OC(C(OC(=O)C3CC3)C(C)(C)O)CC(C)C2C2(C)CCC34CC35CCC(OC3CNCCO3)C(C)(C)C5CCC4C12C (stereo not drawn)
IC50 [3, 8]: 1000 to 10000 nM
IC50 ([1]; read-out: 50% reduction value): 1000 to 10000 nM
% Inh. (range) ([2]; Aβ-40, 20 μM): E^b (20 μM) (% inhibition of 25-75%)

C[C@@H]1C[C@H]([C@H](O)C(C)(C)O)OC2C(=O)[C@@]3(C)[C@@H]4CC[C@H]5C(C)(C)[C@@H](O)CC[C@@]56C[C@@]46CC[C@]3(C)C21 (stereo partly drawn) [drawing 893]
inhibition at 10 µM ([4]; Aβ-42, 10 umol/L, read-out: % Inhibition (range)): < 25%

C[C@@H]1C[C@H]([C@H](O)C(C)(C)O)OC2C(=O)[C@@]3(C)[C@@H]4CC[C@H]5C(C)(C)[C@@H](O)CC[C@@]56C[C@@]46CC[C@]3(C)C21 (stereo partly drawn) [drawing 894]
inhibition at 100 µM ([4]; read-out: % Inhibition (range)): 25 to 75%

CC(=O)O[C@@H]([C@H]1C[C@@H](C)C2C(O1)C(=O)[C@@]1(C)[C@@H]3CC[C@H]4C(C)(C)[C@@H](O[C@@H]5OC[C@@H](O)[C@H](O)[C@H]5O)CC[C@@]45C[C@@]35CC[C@]21C)C(C)(C)O (stereo partly drawn) [drawing 895]
IC50 ([4]; 5 h): > 1000 nM

CC(=O)O[C@@H]([C@H]1C[C@@H](C)C2C(O1)[C@H](O)[C@@]1(C)[C@@H]3CC[C@H]4C(C)(C)[C@@H](O)CC[C@@]45C[C@@]35CC[C@]21C)C(C)(C)O (stereo partly drawn) [drawing 897]
IC50 ([4]; 5 h): ≤ 1000 nM

CCC(=O)O[C@@H]([C@H]1C[C@@H](C)C2C(O1)[C@H](O)[C@@]1(C)[C@@H]3CC[C@H]4C(C)(C)[C@@H](O)CC[C@@]45C[C@@]35CC[C@]21C)C(C)(C)O (stereo partly drawn) [drawing 908]
IC50 ([4]; 5 h): > 10000 nM
inhibition at 100 µM ([4]; read-out: % Inhibition (range)): 25 to 75%

CC(=O)OCC1C[C@@H](C)C2C(O1)[C@H](O)[C@@]1(C)[C@@H]3CC[C@H]4C(C)(C)[C@@H](O)CC[C@@]45C[C@@]35CC[C@]21C (stereo partly drawn) [drawing 923]
inhibition at 20 µM ([4]; Aβ-42, 20 umol/L, read-out: % Inhibition (range)): < 25%

CC(=O)O[C@@H]([C@H]1C[C@@H](C)C2C(O1)[C@H](O)[C@@]1(C)[C@@H]3CC[C@H]4C(C)(C)[C@H](O)CC[C@@]45C[C@@]35CC[C@]21C)C(C)(C)O (stereo partly drawn) [drawing 925]
IC50 ([4]; 5 h): ≤ 1000 nM

CO[C@@H]1[C@@H](OC)[C@H](O[C@H]2CC[C@]34C[C@]35CC[C@]3(C)C6C(O[C@@H]([C@H](OC(C)=O)C(C)(C)O)C[C@H]6C)[C@H](O)[C@@]3(C)[C@@H]5CC[C@H]4C2(C)C)OC[C@H]1OC (stereo partly drawn) [drawing 937]
IC50 [4]: < 10000 nM

CO[C@@H]1[C@@H](OC)[C@H](O[C@H]2CC[C@]34C[C@]35CC[C@]3(C)C6C(O[C@@H]([C@H](OC(C)=O)C(C)(C)O)C[C@H]6C)[C@H](O)[C@@]3(C)[C@@H]5CC[C@H]4C2(C)C)OC[C@H]1OC (stereo partly drawn) [drawing 938]
IC50 [4]: ≤ 1000 nM

CC(=O)O[C@@H]([C@H]1C[C@@H](C)C2C(O1)[C@H](O)[C@@]1(C)[C@@H]3CC[C@H]4C(C)(C)[C@@H](OC5CN(CC(N)=O)CCO5)CC[C@@]45C[C@@]35CC[C@]21C)C(C)(C)O (stereo partly drawn) [drawing 942]
IC50 ([4]; 5 h): ≤ 1000 nM

CC(=O)O[C@@H]([C@H]1C[C@@H](C)C2C(O1)[C@H](O)[C@@]1(C)[C@@H]3CC[C@H]4C(C)(C)[C@H](O)CC[C@@]45C[C@@]35CC[C@]21C)C(C)(C)O (stereo partly drawn) [drawing 944]
IC50 [4]: 1000 to 10000 nM

CC(=O)O[C@@H]([C@H]1C[C@@H](C)C2C(O1)[C@H](O)[C@@]1(C)[C@@H]3CC[C@H]4C(C)(C)[C@@H](OC5CN(CC(=O)N(C)C)CCO5)CC[C@@]45C[C@@]35CC[C@]21C)C(C)(C)O (stereo partly drawn) [drawing 947]
IC50 ([4]; 5 h): ≤ 1000 nM

CC(=O)O[C@@H]([C@H]1C[C@@H](C)C2C(O1)[C@H](O)[C@@]1(C)[C@@H]3CC[C@H]4C(C)(C)[C@@H](OC(=O)c5cccnc5)CC[C@@]45C[C@@]35CC[C@]21C)C(C)(C)O (stereo partly drawn) [drawing 951]
IC50 ([4]; 5 h): ≤ 1000 nM

CC(=O)O[C@@H]([C@H]1C[C@@H](C)[C@H]2[C@H](O1)[C@H](O)[C@@]1(C)[C@@H]3CC[C@H]4C(C)(C)C(OC(N)=O)CC[C@@]45C[C@@]35CC[C@]21C)C(C)(C)O (stereo partly drawn) [drawing 964]
IC50 ([4]; 5 h): ≤ 1000 nM

CC(=O)O[C@@H]([C@H]1C[C@@H](C)[C@H]2[C@H](O1)C(=O)[C@@]1(C)[C@@H]3CC[C@H]4C(C)(C)[C@@H](O[C@H]5CN(CC(N)=O)CCO5)CC[C@@]45C[C@@]35CC[C@]21C)C(C)(C)O [drawing 969]
IC50 ([4]; 5 h): ≤ 1000 nM

— patent publication US20110251379A1, “COMPOUNDS USEFUL FOR TREATING NEURODEGENERATIVE DISORDERS” (Satori Pharmaceuticals, Inc., priority 2010, published 2011)
